19 compounds from patent publication US9399646B2 (Genentech, Inc., priority 2010, dated 2016) can be followed below.

pIC50: −log10 of the molar value.

One test deals with T1, ER-α in MCF-7 cells (Homo sapiens, UniProt P03372).
T1 sequence (P03372 1-595): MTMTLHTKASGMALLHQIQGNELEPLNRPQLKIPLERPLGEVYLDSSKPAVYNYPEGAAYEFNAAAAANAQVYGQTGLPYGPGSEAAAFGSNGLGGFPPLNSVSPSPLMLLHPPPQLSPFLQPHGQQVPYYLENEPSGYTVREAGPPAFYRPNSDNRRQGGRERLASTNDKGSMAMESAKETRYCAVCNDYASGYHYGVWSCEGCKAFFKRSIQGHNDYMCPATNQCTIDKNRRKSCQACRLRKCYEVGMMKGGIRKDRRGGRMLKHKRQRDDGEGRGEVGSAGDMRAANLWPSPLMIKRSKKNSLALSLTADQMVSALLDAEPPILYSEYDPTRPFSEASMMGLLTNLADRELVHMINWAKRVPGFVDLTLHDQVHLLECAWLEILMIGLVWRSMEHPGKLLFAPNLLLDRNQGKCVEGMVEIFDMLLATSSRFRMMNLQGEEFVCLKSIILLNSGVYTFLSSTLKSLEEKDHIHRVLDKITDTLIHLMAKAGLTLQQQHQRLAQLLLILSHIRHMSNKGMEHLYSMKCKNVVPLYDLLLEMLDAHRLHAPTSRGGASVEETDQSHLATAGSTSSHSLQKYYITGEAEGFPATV
As to the kind of experiment: Breast cancer cell ER-α in cell western assay (SP1). Details: endogenous in cells; host or cells: MCF-7. The class given is cell-based. The settings on record: 4 or 24 hr post compound addition; for Emax: MCF7, SP1 antibody, read-out: ER-α In Cell Western Assay (SP1) Max Response; for DC50: SP1 antibody, read-out: ER-α In Cell Western Assay (SP1) IC50. A digest of the protocol: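 Fixed cells were immunostained with SP1 anti-ER antibody; ER signal (800 nm) was normalized to DRAQ5 DNA signal (700 nm) and expressed as % of untreated cells.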

The next test concerns MCF-7 cells. As to the kind of experiment: Breast cancer cell viability assay (CellTiter-Glo, 5 days). It counts as cell-based. The settings on record: 5 days' compound exposure; for pIC50: Homo sapiens, MCF7, 120 h. Put shortly: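 MCF-7 cells, 320 per well in RPMI with 10% FBS and 20 mM HEPES, adhered overnight, then exposed 5 days to an eleven-point semilog dilution (final 0.3-0.000003 μM). CellTiter-Glo luminescence read; % viability = (sample − cell-free background)/(untreated − background) × 100.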
(In ATP-based viability assays light output follows the ATP content of the culture.)

For the compound `O=C(O)/C=C/c1ccc(/C(=C(\c2ccc(F)cc2Cl)C2CCC2)c2ccc3scnc3c2)cc1` [Compound 278, (E)-3-(4-((E)-1-(Benzo[d]thiazol-5-yl)-2-(2-chloro-4-fluorophenyl)-2-cyclobutylvinyl)phenyl)acrylic acid], at ER-α in MCF-7 cells, the Emax is at least 40% and the DC50 was at most 100 nM. Further, in the test on MCF-7 cells, the “MCF7 Viability Assay Max Response” value is reported as “++ (++ = a single % value ≧ 40%)” and the negative-log IC50 (pIC50) (commonly the negative decadic logarithm of the IC50, by convention in mol/L) is at least 7.00.

With `Cc1cscc1/C(=C(\c1ccc(/C=C/C(=O)O)cc1)c1ccc2scnc2c1)C1CCC1` [Compound 279, (E)-3-(4-((E)-1-(Benzo[d]thiazol-5-yl)-2-cyclobutyl-2-(4-methylthiophen-3-yl)vinyl)phenyl)acrylic acid], at ER-α in MCF-7 cells, the Emax was at least 40% and the DC50 is at most 100 nM. Also, in the test on MCF-7 cells, the “MCF7 Viability Assay Max Response” value is listed as “++ (++ = a single % value ≧ 40%)” and the pIC50 was at least 7.00.

`CC/C(=C(/c1ccc(/C=C/C(=O)O)cc1)c1ccc2scnc2c1)c1ccccc1Cl` [Compound 280, (E)-3-(4-((E)-1-(Benzo[d]thiazol-5-yl)-2-(2-chlorophenyl)but-1-en-1-yl)phenyl)acrylic acid]: at ER-α in MCF-7 cells, the Emax was at least 40% and the DC50 was at most 100 nM. In the test with MCF-7 cells, the “MCF7 Viability Assay Max Response” value is “++ (++ = a single % value ≧ 40%)” and the pIC50 is at least 7.00.

With `CC/C(=C(/c1ccc(/C=C/C(=O)O)cc1)c1ccc2scnc2c1)c1ccc(F)cc1` [Compound 281, (E)-3-(4-((E)-1-(Benzo[d]thiazol-5-yl)-2-(4-fluorophenyl)but-1-en-1-yl)phenyl)acrylic acid], at ER-α in MCF-7 cells, the Emax is at least 40% and the DC50 was at most 100 nM. In addition, in the test with MCF-7 cells, the “MCF7 Viability Assay Max Response” value is given as “++ (++ = a single % value ≧ 40%)” and the pIC50 is under 7.00.

For `CC/C(=C(/c1ccc(/C=C/C(=O)O)cc1)c1ccc2scnc2c1)c1ccc(F)cc1C` [Compound 282, (E)-3-(4-((E)-1-(Benzo[d]thiazol-5-yl)-2-(4-fluoro-2-methylphenyl)but-1-en-1-yl)phenyl)acrylic acid], at ER-α in MCF-7 cells, the Emax was at least 40% and the DC50 was at most 100 nM. In the test on MCF-7 cells, the “MCF7 Viability Assay Max Response” value is given as “++ (++ = a single % value ≧ 40%)” and the pIC50 is at least 7.00.

For the compound `CC/C(=C(/c1ccc(/C=C/C(=O)O)cc1)c1ccc2scnc2c1)c1ccccc1C` [Compound 283, (E)-3-(4-((E)-1-(Benzo[d]thiazol-5-yl)-2-(o-tolyl)but-1-en-1-yl)phenyl)acrylic acid], at ER-α in MCF-7 cells, the Emax was at least 40% and the DC50 was at most 100 nM. Further, in the test on MCF-7 cells, the “MCF7 Viability Assay Max Response” value is on record as “++ (++ = a single % value ≧ 40%)” and the pIC50 is at least 7.00.

Consider `CC/C(=C(/c1ccc(/C=C/C(=O)O)cc1)c1ccc2scnc2c1)c1ccncc1Cl` [Compound 284, (E)-3-(4-((E)-1-(Benzo[d]thiazol-5-yl)-2-(3-chloropyridin-4-yl)but-1-en-1-yl)phenyl)acrylic acid], for which, on ER-α in MCF-7 cells, the Emax is at least 40% and the DC50 was at most 100 nM. Further, in the test on MCF-7 cells, the “MCF7 Viability Assay Max Response” value is “++ (++ = a single % value ≧ 40%)” and the pIC50 was at least 7.00.

Turning to `O=C(O)/C=C/c1ccc(/C(=C(\c2ccccc2)C2CCC2)c2ccc3scnc3c2)cc1` [Compound 286, (E)-3-(4-((E)-1-(Benzo[d]thiazol-5-yl)-2-cyclobutyl-2-phenylvinyl)phenyl)acrylic acid], at ER-α in MCF-7 cells, the Emax is at least 40% and the DC50 is at most 100 nM. In the test on MCF-7 cells, the “MCF7 Viability Assay Max Response” value is “++ (++ = a single % value ≧ 40%)” and the pIC50 was at least 7.00.

Regarding `CC/C(=C(/c1ccc(/C=C/C(=O)O)cc1)c1ccc2c(c1)CNC2=O)c1ccc(F)cc1Cl` [Compound 287, (E)-3-(4-((E)-2-(2-Chloro-4-fluorophenyl)-1-(1-oxoisoindolin-5-yl)but-1-en-1-yl)phenyl)acrylic acid], at ER-α in MCF-7 cells, the Emax was at least 40% and the DC50 was at most 100 nM. In addition, in the test on MCF-7 cells, the “MCF7 Viability Assay Max Response” value is on record as “++ (++ = a single % value ≧ 40%)” and the negative logarithm of the IC50 (pIC50) is at least 7.00.

Regarding `CC/C(=C(/c1ccc(/C=C/C(=O)O)cc1)c1ccc2[nH]ncc2c1)c1ccc(S(=O)(=O)C(F)(F)F)cc1` [Compound 288], on ER-α in MCF-7 cells, the Emax is at least 40% and the DC50 is at most 100 nM. Also, in the test with MCF-7 cells, the “MCF7 Viability Assay Max Response” value is recorded as “++ (++ = a single % value ≧ 40%)” and the pIC50 is under 7.00.

Take `CC/C(=C(/c1ccc(/C=C/C(=O)O)cc1)c1ccc2cccnc2c1)c1ccc(F)cc1Cl` [Compound 289, (E)-3-(4-((E)-2-(2-Chloro-4-fluorophenyl)-1-(quinolin-7-yl)but-1-en-1-yl)phenyl)acrylic acid]: at ER-α in MCF-7 cells, the Emax is at least 40% and the DC50 was at most 100 nM. Also, in the test on MCF-7 cells, the “MCF7 Viability Assay Max Response” value is given as “++ (++ = a single % value ≧ 40%)” and the pIC50 is under 7.00.

Regarding `CC/C(=C(/c1ccc(/C=C/C(=O)O)cc1)c1ccc2[nH]ncc2c1)c1ccc(Oc2ncccn2)cc1` [Compound 290, (E)-3-(4-((E)-1-(1H-Indazol-5-yl)-2-(4-(pyrimidin-2-yloxy)phenyl)but-1-en-1-yl)phenyl)acrylic acid], at ER-α in MCF-7 cells, the Emax was at least 40% and the DC50 was at most 100 nM. For the same compound, in the test with MCF-7 cells, the “MCF7 Viability Assay Max Response” value is on record as “++ (++ = a single % value ≧ 40%)” and the pIC50 is at least 7.00.

Consider `CC/C(=C(/c1ccc(/C=C/C(=O)O)cc1)c1ccc2[nH]ncc2c1)c1ccc(Oc2ccccc2)cc1Cl` [Compound 291, (E)-3-(4-((E)-2-(2-Chloro-4-phenoxyphenyl)-1-(1H-indazol-5-yl)but-1-en-1-yl)phenyl)acrylic acid], for which, on ER-α in MCF-7 cells, the Emax is at least 40% and the DC50 is at most 100 nM. Moreover, in the test on MCF-7 cells, the “MCF7 Viability Assay Max Response” value is listed as “++ (++ = a single % value ≧ 40%)” and the negative logarithm of the IC50 (pIC50) was at least 7.00.

Turning to `CC/C(=C(/c1ccc(/C=C/C(=O)O)cc1)c1ccc2[nH]ncc2c1)c1ccc(Oc2cccnc2)cc1` [Compound 292, (E)-3-(4-((E)-1-(1H-Indazol-5-yl)-2-(4-(pyridin-3-yloxy)phenyl)but-1-en-1-yl)phenyl)acrylic acid], on ER-α in MCF-7 cells, the Emax was at least 40% and the DC50 is at most 100 nM. In the test on MCF-7 cells, the “MCF7 Viability Assay Max Response” value is on record as “++ (++ = a single % value ≧ 40%)” and the pIC50 was at least 7.00.

In the case of `CC/C(=C(/c1ccc(/C=C/C(=O)O)cc1)c1ccc2[nH]ncc2c1)c1ccc(Oc2cnccn2)cc1` [Compound 293, (E)-3-(4-((E)-1-(1H-Indazol-5-yl)-2-(4-(pyrazin-2-yloxy)phenyl)but-1-en-1-yl)phenyl)acrylic acid], at ER-α in MCF-7 cells, the Emax was at least 40% and the DC50 was at most 100 nM. In the test with MCF-7 cells, the “MCF7 Viability Assay Max Response” value is “++ (++ = a single % value ≧ 40%)” and the pIC50 was at least 7.00.

On to `CC/C(=C(/c1ccc(/C=C/C(=O)O)cc1)c1ccc2[nH]ncc2c1)c1ccc(F)c(Oc2ccccc2)c1` [Compound 294, (E)-3-(4-((E)-2-(4-Fluoro-3-phenoxyphenyl)-1-(1H-indazol-5-yl)but-1-en-1-yl)phenyl)acrylic acid], for which, on ER-α in MCF-7 cells, the Emax was at least 40% and the DC50 is at most 100 nM. In the test with MCF-7 cells, the “MCF7 Viability Assay Max Response” value was “++ (++ = a single % value ≧ 40%)” and the negative logarithm of the IC50 (pIC50) was at least 7.00.

`CC/C(=C(/c1ccc(/C=C/C(=O)O)cc1)c1ccc2[nH]ncc2c1)c1ccc(Oc2ccccc2)c(F)c1` [Compound 295, (E)-3-(4-((E)-2-(3-Fluoro-4-phenoxyphenyl)-1-(1H-indazol-5-yl)but-1-en-1-yl)phenyl)acrylic acid]: at ER-α in MCF-7 cells, the Emax is at least 40% and the DC50 is at most 100 nM. Moreover, in the test with MCF-7 cells, the “MCF7 Viability Assay Max Response” value is “++ (++ = a single % value ≧ 40%)” and the pIC50 is at least 7.00.

Consider `CC/C(=C(/c1ccc(/C=C/C(=O)O)cc1)c1ccc2[nH]ncc2c1F)c1ccc(Oc2ccccn2)cc1` [Compound 296, (E)-3-(4-((E)-1-(4-Fluoro-1H-indazol-5-yl)-2-(4-(pyridin-2-yloxy)phenyl)but-1-en-1-yl)phenyl)acrylic acid], for which, at ER-α in MCF-7 cells, the Emax was at least 40% and the DC50 is at most 100 nM. Further, in the test with MCF-7 cells, the “MCF7 Viability Assay Max Response” value is listed as “++ (++ = a single % value ≧ 40%)” and the pIC50 is at least 7.00.

On to `CC/C(=C(/c1ccc(/C=C/C(=O)O)cc1)c1ccc2[nH]ncc2c1)c1cc(Oc2ccccc2)ccc1C` [Compound 297, (E)-3-(4-((E)-1-(1H-Indazol-5-yl)-2-(2-methyl-5-phenoxyphenyl)but-1-en-1-yl)phenyl)acrylic acid], for which, on ER-α in MCF-7 cells, the Emax is at least 40% and the DC50 was at most 100 nM. For the same compound, in the test with MCF-7 cells, the “MCF7 Viability Assay Max Response” value is given as “++ (++ = a single % value ≧ 40%)” and the pIC50 is at least 7.00.
